Test results reported in ChEMBL document CHEMBL3227944, “Beta-adrenoceptor studies. 5. 1H NMR and IR spectroscopic analysis of the conformation of the hydrohalide salts of beta-adrenoceptor-blocking aryloxypropanolamines. Evidence for a seven-membered ring structure with participation of two hydrogen bonds” (J Med Chem, 1979).
Activity calls are given as the source filed them. The rule behind the calls is not given here.

Experiments:
[1] = species: Cavia porcellus; assay: Competitive antagonist activity at guinea pig trachea beta-adrenoceptor assessed as inhibition of isoprenaline-induced effect up to 10^-4 M; assay type: tissue-based
[2] = Antagonist activity at guinea pig atrium beta-adrenoceptor assessed as inhibition of isoprenaline-induced effect; assay type: tissue-based, Cavia porcellus, Cardiac atrium
[3] = species: Cavia porcellus; assay: Competitive antagonist activity at guinea pig atrium beta-adrenoceptor assessed as inhibition of isoprenaline-induced effect up to 3 X 10^-5 M; assay type: tissue-based; settings: Cardiac atrium
[4] = Antagonist activity at guinea pig trachea beta-adrenoceptor assessed as inhibition of isoprenaline-induced effect; assay type: tissue-based, Cavia porcellus

SMILES | Activity [1] | pA2 [2] | Activity [3] | pA2 [4]
COCC(COc1cccc(C)c1)NC(C)C.Cl (configuration not stated) | inactive | 4.66 |  | 
Cc1cccc(OCC(Cl)CNC(C)C)c1 (configuration not stated) | inactive |  | inactive | 
Cc1cccc(OCC(O)CNC(C)C)c1.Cl (configuration not stated) |  | 8.76 |  | 7.97
COC(CNC(C)C)COc1cccc(C)c1.Cl (configuration not stated) | inactive | 5.41 |  | 
Cc1cccc(OCC(CCl)NC(C)C)c1.Cl (configuration not stated) | inactive | 4.86 |  | 
Cc1cccc(OCC(CO)NC(C)C)c1.Cl (configuration not stated) |  | 5.08 |  | 5.21
